The target in assay [1] is T1, E. coli MurB (Escherichia coli, UniProt P08373). The assay is described as follows: ITC assay of E. coli MurB activity. Type of assay: biochemical. As for the experimental part: E. coli MurB was diluted in assay buffer (50 mM Tris pH 8.0, 1 mM TCEP, 20 mM KCl, 0.005% Triton X-100) to a final concentration of 1.3 nM. The buffer contained the MurB substrates at the following concentrations in the ITC test cell: 100 μM NADPH and 60 μM UDP-GlcNAc-EP. DMSO was also added at a final concentration of 2.7% (v/v).
(§1) The inhibition of E. coli MurB by (2R)-2-{2-[3-(4-tert-butylphenoxy)phenyl]-4-oxo-1,3-thiazolidin-3-yl} hexanoic acid, a 4-thiazolidinone compound, was studied by the same method. Reactions were carried in 50 mM Tris, pH 8.0, 1 mM TCEP, 20 mM KCl, 0.005% Triton, in the presence of 100 μM NADPH and 60 μM EP. The concentration of MurB was 1.3 nM.
(In general: Isothermal titration calorimetry measures the heat released or taken up as one component is titrated into another.)

The target in assay [2] is T1, E. coli MurB. The assay is described as follows: Absorbance method measuring NADPH depletion at 340 nm (MurB activity). The format is biochemical. As for the experimental part: as §1
Other kinetic measurements were performed to further characterize E. coli MurB by ITC.

Assay [3] concerns the target T2, E. coli GyrAB (Escherichia coli, UniProt P0AES6). The experiment in a line: ITC assay of E. coli GyrAB ATPase activity. Type of assay: biochemical. As to conditions: read-out: Ki, ADP. As for the experimental part:
The titration was started manually after the DP signal was stabilized.
The data were analyzed as follows: the power value (μcal/sec) after each injection is subtracted from the initial power value (before any injection occurs).

Assay [4] addresses T2, E. coli GyrAB. The experiment in a line: Independent assay of GyrAB enzyme activity using phosphate detection. The format is biochemical. As to conditions: read-out: Ki, ADP.
Assay [5] deals with T3, E. coli MurC (Escherichia coli, UniProt P17952). The assay is described as follows: biochemical. As for the experimental part:
E. coli MurC was diluted in assay buffer (50 mM Tris pH 8.0, 1 mM Tris (2-carboxyethyl) phosphine hydrochloride (TCEP), 0.01% (w/v) Triton X-100, 20 mM ammonium formate) to a final concentration of 10 nM. […] The titration was started manually after the DP signal was stabilized. A total of 16 injections (2, 2, 4, 4, 4, 4, 8, 8, 16, 16, 32, 32, 32, 32, 32, and 32 μl) were performed. Time spacing in between injections was set at 120 sec for all injections.
All the reactions were carried in 50 mM Tris, pH 8.0, 1 mM TCEP, 0.01% (w/v) Triton, and 20 mM ammonium formate. The final concentration of E. coli MurC was 10 nM. […] The reaction was initiated with the addition of MurC and placed into the test cell. AMP-PCP was dissolved in the buffer described above at a final concentration of 2.8 mM and placed into the titration syringe.

Assay [6] has as its target T3, E. coli MurC. The experiment in a line: biochemical. The source holds these as a separate data set.

Several values for one entry are separate records, joined by “and”; a condition that tells them apart may be missing. Equal values may be shown once. Read-outs that look alike come from different tables or passages of the source.

T1 sequence (P08373 whole entry): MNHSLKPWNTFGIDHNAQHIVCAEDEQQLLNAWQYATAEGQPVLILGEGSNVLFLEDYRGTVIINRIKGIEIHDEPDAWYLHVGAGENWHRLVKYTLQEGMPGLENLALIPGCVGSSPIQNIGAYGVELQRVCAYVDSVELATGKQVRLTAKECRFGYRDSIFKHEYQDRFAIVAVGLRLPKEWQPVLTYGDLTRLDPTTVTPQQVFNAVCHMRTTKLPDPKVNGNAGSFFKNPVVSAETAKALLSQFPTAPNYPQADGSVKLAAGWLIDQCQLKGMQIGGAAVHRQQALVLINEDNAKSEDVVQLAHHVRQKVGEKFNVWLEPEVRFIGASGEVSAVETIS
T3 sequence (P17952 whole entry): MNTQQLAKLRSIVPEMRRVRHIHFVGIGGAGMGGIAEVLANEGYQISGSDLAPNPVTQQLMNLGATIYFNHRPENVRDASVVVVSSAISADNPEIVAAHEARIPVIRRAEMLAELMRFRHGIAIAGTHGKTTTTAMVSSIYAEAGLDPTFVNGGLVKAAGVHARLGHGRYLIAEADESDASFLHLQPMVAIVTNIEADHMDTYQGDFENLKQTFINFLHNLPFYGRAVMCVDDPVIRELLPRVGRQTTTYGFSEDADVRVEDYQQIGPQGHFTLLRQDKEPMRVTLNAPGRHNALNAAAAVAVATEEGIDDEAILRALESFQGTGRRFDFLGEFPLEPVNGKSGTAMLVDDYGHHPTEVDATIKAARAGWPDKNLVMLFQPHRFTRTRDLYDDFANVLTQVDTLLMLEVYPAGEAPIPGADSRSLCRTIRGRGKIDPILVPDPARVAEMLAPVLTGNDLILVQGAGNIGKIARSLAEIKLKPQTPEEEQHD

Turning to `CCCC[C@H](C(=O)O)N1C(=O)CSC1c1cccc(Oc2ccc(C(C)(C)C)cc2)c1` (stereo partly drawn) [4-thiazolidinone analogue, (2R)-2-{2-[3-(4-tert-butylphenoxy)phenyl]-4-oxo-1,3-thiazolidin-3-yl} hexanoic acid], the 50% inhibitory concentration (IC50) (commonly the concentration that inhibits the measured activity by half) in assay [1] (1.3 nM MurB, 100 μM NADPH, 60 μM UDP-GlcNAc-EP, read-out: 4-thiazolidinone analogue IC50) was 154 µM; in assay [2] (NADPH depletion at 340 nm, read-out: 4-thiazolidinone analogue IC50), 101 µM.

As to `Nc1ncnc2c1ncn2[C@@H]1O[C@H](COP(=O)(O)OP(=O)(O)O)[C@@H](O)[C@H]1O` [ADP], the Ki in assay [3] and in assay [4] was 18 µM each time.

For the compound `Nc1ncnc2c1ncn2[C@@H]1O[C@H](COP(=O)(O)OP(=O)(O)CP(=O)(O)O)[C@@H](O)[C@H]1O` [AMP-PCP, β,γ-Methyleneadenosine 5′-triphosphate], the concentration for half-maximal inhibition (IC50) in assay [5] is 27 µM; in assay [6] (AMP-PCP IC50), 40 µM and 35 µM.

As to `NC(=O)C1=CN([C@@H]2O[C@H](COP(=O)(O)OP(=O)(O)OC[C@H]3O[C@@H](n4cnc5c(N)ncnc54)[C@H](OP(=O)(O)O)[C@@H]3O)[C@@H](O)[C@H]2O)C=CC1` [NADPH], the Michaelis-Menten constant (Km) (commonly the substrate concentration at which the rate is half of its maximum) in assay [1] (read-out: KM, NADPH) is 9 µM; in assay [2] (read-out: KM, NADPH) it was 9 µM.

As for `C=C(O[C@H]1[C@H](O)[C@@H](CO)O[C@H](OP(=O)(O)OP(=O)(O)OC[C@H]2O[C@@H](n3ccc(=O)[nH]c3=O)[C@H](O)[C@@H]2O)[C@@H]1NC(C)=O)C(=O)O` [UDP-GlcNAc−EP, uridine diphosphate-GlcNAc-enolpyruvate], the Michaelis constant (Km) was found to be 8 µM in assay [1] (read-out: KM, UDP-GlcNAc-EP) and 6 µM in assay [2] (read-out: KM, UDP-GlcNAc-EP).

As to `CC(=O)N[C@H]1[C@@H](OP(=O)(O)OP(=O)(O)OC[C@H]2O[C@@H](n3ccc(=O)[nH]c3=O)[C@H](O)[C@@H]2O)O[C@H](CO)[C@@H](O)[C@@H]1O[C@H](C)C(=O)O` [UDP-MurNAc], the Km in assay [5] (ITC, read-out: KM, UDP-MurNAc) came to 21 µM; in assay [6] (Phosphate detection, read-out: KM, UDP-MurNAc) it was 19 µM.

(Values after US20080145840A1 (priority 2003, published 2008).)
